# According to PubChem BioAssay AID2060883 (Molecular Pharmacology Branch, DTP, NCI, 2025):
# Tested on: 843782-103-R-J1-PDC complex spheroid viability
# Test: Anticancer human tumor 843782-103-R-J1-PDC patient-derived lung adenocarcinoma cell line growth inhibition [RAS]
# Settings: for IC50: curve of first compound; for viability, T/C: stronger effect = lower value
# Method in brief: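 Agents were tested in combination matrices in half-log decrements from a top concentration at or near clinical Cmax (10 microM if undetermined). Targets were multi-cell spheroids of tumour lines plus HUVEC and MSC stromal cells.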
# [1] = second compound 0.0316 µM, first compound 0.0316 µM
# [2] = second compound 0.0316 µM, first compound 0.1 µM
# [3] = second compound 0.0316 µM, first compound 0.316 µM
# [4] = second compound 0.0316 µM, first compound 1 µM
# [5] = second compound 0.0316 µM, first compound 3.16 µM
# [6] = second compound 0.0316 µM, first compound 10 µM
# [7] = second compound 0.1 µM, first compound 0.0316 µM
# [8] = second compound 0.1 µM, first compound 0.1 µM
# [9] = second compound 0.1 µM, first compound 0.316 µM
# [10] = second compound 0.1 µM, first compound 1 µM
# [11] = second compound 0.1 µM, first compound 3.16 µM
# [12] = second compound 0.1 µM, first compound 10 µM
# [13] = second compound 0.316 µM, first compound 0.0316 µM
# [14] = second compound 0.316 µM, first compound 0.1 µM
# [15] = second compound 0.316 µM, first compound 0.316 µM
# [16] = second compound 0.316 µM, first compound 1 µM
# [17] = second compound 0.316 µM, first compound 3.16 µM
# [18] = second compound 0.316 µM, first compound 10 µM
# [19] = second compound 1 µM, first compound 0.0316 µM
# [20] = second compound 1 µM, first compound 0.1 µM
# [21] = second compound 1 µM, first compound 0.316 µM
# [22] = second compound 1 µM, first compound 1 µM
# [23] = second compound 1 µM, first compound 3.16 µM
# [24] = second compound 1 µM, first compound 10 µM
# 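Note: viability read after seven days of compound exposure.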
smiles,measurement,setting,value
CC(Nc1ccc2c(c1)OCCn1cc(N3C(=O)OCC3C(F)F)nc1-2)C(N)=O (stereo unspecified) + C=CC(=O)N1CCN(c2nc(OCC3CCCN3C)nc3c(F)c(-c4nc(N)cc(C)c4C(F)(F)F)c(Cl)cc23)C(C)C1,IC50,second compound 0.00316 µM,129 nM
same,IC50,second compound 0.01 µM,93.6 nM
same,IC50,second compound 0.0316 µM,96.2 nM
same,IC50,second compound 0.1 µM,133 nM
same,IC50,second compound 0.316 µM,114 nM
same,IC50,second compound 1 µM,118 nM
same,"viability, T/C","second compound 0.00316 µM, first compound 0.0316 µM",78.7%
same,"viability, T/C","second compound 0.00316 µM, first compound 0.1 µM",51.4%
same,"viability, T/C","second compound 0.00316 µM, first compound 0.316 µM",38%
same,"viability, T/C","second compound 0.00316 µM, first compound 1 µM",24.7%
same,"viability, T/C","second compound 0.00316 µM, first compound 3.16 µM",17.9%
same,"viability, T/C","second compound 0.00316 µM, first compound 10 µM",9.53%
same,"viability, T/C","second compound 0.01 µM, first compound 0.0316 µM",69%
same,"viability, T/C","second compound 0.01 µM, first compound 0.1 µM",49.3%
same,"viability, T/C","second compound 0.01 µM, first compound 0.316 µM",32.3%
same,"viability, T/C","second compound 0.01 µM, first compound 1 µM",25.1%
same,"viability, T/C","second compound 0.01 µM, first compound 3.16 µM",19.7%
same,"viability, T/C","second compound 0.01 µM, first compound 10 µM",10.9%
same,"viability, T/C",[1],69.3%
same,"viability, T/C",[2],49.5%
same,"viability, T/C",[3],33.6%
same,"viability, T/C",[4],23.1%
same,"viability, T/C",[5],20.4%
same,"viability, T/C",[6],9.06%
same,"viability, T/C",[7],67.8%
same,"viability, T/C",[8],57.8%
same,"viability, T/C",[9],30%
same,"viability, T/C",[10],23.1%
same,"viability, T/C",[11],15.4%
same,"viability, T/C",[12],10.2%
same,"viability, T/C",[13],65.7%
same,"viability, T/C",[14],54.2%
same,"viability, T/C",[15],33.5%
same,"viability, T/C",[16],24.3%
same,"viability, T/C",[17],17.4%
same,"viability, T/C",[18],8.73%
same,"viability, T/C",[19],74.3%
same,"viability, T/C",[20],45.4%
same,"viability, T/C",[21],40.6%
same,"viability, T/C",[22],26.5%
same,"viability, T/C",[23],17.9%
same,"viability, T/C",[24],8.86%
Cc1nc(N2CCC3(CC2)COC(C)C3N)c(CO)nc1Sc1ccnc(N)c1Cl (stereo unspecified) + C#Cc1c(F)ccc2cc(O)cc(-c3ncc4c(N5CC6CCC(C5)N6)nc(OCC56CCCN5CC(F)C6)nc4c3F)c12,IC50,second compound 0.0316 µM,8650 nM
same,IC50,second compound 0.1 µM,5420 nM
same,IC50,second compound 0.316 µM,4690 nM
same,IC50,second compound 1 µM,536 nM
same,IC50,second compound 3.16 µM,141 nM
same,IC50,second compound 10 µM,< 31.6 nM
same,"viability, T/C",[1],107%
same,"viability, T/C",[2],102%
same,"viability, T/C",[3],85.6%
same,"viability, T/C",[4],77.2%
same,"viability, T/C",[5],68.2%
same,"viability, T/C",[6],45.8%
same,"viability, T/C",[7],105%
same,"viability, T/C",[8],98%
same,"viability, T/C",[9],83.1%
same,"viability, T/C",[10],72.6%
same,"viability, T/C",[11],54.3%
same,"viability, T/C",[12],44%
same,"viability, T/C",[13],100%
same,"viability, T/C",[14],91.4%
same,"viability, T/C",[15],79.5%
same,"viability, T/C",[16],65.9%
same,"viability, T/C",[17],50.6%
same,"viability, T/C",[18],46.2%
same,"viability, T/C",[19],96%
same,"viability, T/C",[20],80.9%
same,"viability, T/C",[21],60%
same,"viability, T/C",[22],39.5%
same,"viability, T/C",[23],29.6%
same,"viability, T/C",[24],32.1%
same,"viability, T/C","second compound 3.16 µM, first compound 0.0316 µM",82.6%
same,"viability, T/C","second compound 3.16 µM, first compound 0.1 µM",54.5%
same,"viability, T/C","second compound 3.16 µM, first compound 0.316 µM",39.4%
same,"viability, T/C","second compound 3.16 µM, first compound 1 µM",27.9%
same,"viability, T/C","second compound 3.16 µM, first compound 3.16 µM",27.4%
same,"viability, T/C","second compound 3.16 µM, first compound 10 µM",23.4%
same,"viability, T/C","second compound 10 µM, first compound 0.0316 µM",49.2%
same,"viability, T/C","second compound 10 µM, first compound 0.1 µM",32.2%
same,"viability, T/C","second compound 10 µM, first compound 0.316 µM",30.9%
same,"viability, T/C","second compound 10 µM, first compound 1 µM",25.4%
same,"viability, T/C","second compound 10 µM, first compound 3.16 µM",21.6%
same,"viability, T/C","second compound 10 µM, first compound 10 µM",21.2%
CC1(C)CCC(Nc2ncc(C(F)(F)F)c(-c3c[nH]c4c(P(C)(C)=O)c(C#N)ccc34)n2)CN1 (stereo unspecified) + CCn1c(-c2cccnc2C(C)OC)c2c3cc(ccc31)N1CCOC(CC(NC(=O)C(C(C)C)N(C)C(=O)C3(F)CCN(C(=O)C#CC(C)(C)N(C)C)CC3)C(=O)N3CCCC(N3)C(=O)OCC(C)(C)C2)C1,IC50,second compound 0.000949 µM,2.53 nM
same,IC50,second compound 0.003 µM,2.29 nM
same,IC50,second compound 0.00949 µM,3.46 nM
same,IC50,second compound 0.03 µM,3.86 nM
same,IC50,second compound 0.0949 µM,2.63 nM
same,IC50,second compound 0.3 µM,1.67 nM
same,"viability, T/C","second compound 0.000949 µM, first compound 0.000949 µM",78.2%
same,"viability, T/C","second compound 0.000949 µM, first compound 0.003 µM",45.2%
same,"viability, T/C","second compound 0.000949 µM, first compound 0.00949 µM",29.4%
same,"viability, T/C","second compound 0.000949 µM, first compound 0.03 µM",26.6%
same,"viability, T/C","second compound 0.000949 µM, first compound 0.0949 µM",22.9%
same,"viability, T/C","second compound 0.000949 µM, first compound 0.3 µM",21.8%
same,"viability, T/C","second compound 0.003 µM, first compound 0.000949 µM",59.9%
same,"viability, T/C","second compound 0.003 µM, first compound 0.003 µM",46.3%
same,"viability, T/C","second compound 0.003 µM, first compound 0.00949 µM",32.3%
same,"viability, T/C","second compound 0.003 µM, first compound 0.03 µM",21%
same,"viability, T/C","second compound 0.003 µM, first compound 0.0949 µM",17.9%
same,"viability, T/C","second compound 0.003 µM, first compound 0.3 µM",19.4%
same,"viability, T/C","second compound 0.00949 µM, first compound 0.000949 µM",59.6%
same,"viability, T/C","second compound 0.00949 µM, first compound 0.003 µM",51.8%
same,"viability, T/C","second compound 0.00949 µM, first compound 0.00949 µM",34%
same,"viability, T/C","second compound 0.00949 µM, first compound 0.03 µM",20.2%
same,"viability, T/C","second compound 0.00949 µM, first compound 0.0949 µM",19.5%
same,"viability, T/C","second compound 0.00949 µM, first compound 0.3 µM",19%
same,"viability, T/C","second compound 0.03 µM, first compound 0.000949 µM",62.9%
same,"viability, T/C","second compound 0.03 µM, first compound 0.003 µM",55.1%
same,"viability, T/C","second compound 0.03 µM, first compound 0.00949 µM",33%
same,"viability, T/C","second compound 0.03 µM, first compound 0.03 µM",22.6%
same,"viability, T/C","second compound 0.03 µM, first compound 0.0949 µM",18.8%
same,"viability, T/C","second compound 0.03 µM, first compound 0.3 µM",18%
same,"viability, T/C","second compound 0.0949 µM, first compound 0.000949 µM",69.3%
same,"viability, T/C","second compound 0.0949 µM, first compound 0.003 µM",46.8%
same,"viability, T/C","second compound 0.0949 µM, first compound 0.00949 µM",31.5%
same,"viability, T/C","second compound 0.0949 µM, first compound 0.03 µM",18.5%
same,"viability, T/C","second compound 0.0949 µM, first compound 0.0949 µM",17.3%
same,"viability, T/C","second compound 0.0949 µM, first compound 0.3 µM",17.6%
same,"viability, T/C","second compound 0.3 µM, first compound 0.000949 µM",57.7%
same,"viability, T/C","second compound 0.3 µM, first compound 0.003 µM",41.8%
same,"viability, T/C","second compound 0.3 µM, first compound 0.00949 µM",24.4%
same,"viability, T/C","second compound 0.3 µM, first compound 0.03 µM",15.5%
same,"viability, T/C","second compound 0.3 µM, first compound 0.0949 µM",13.6%
same,"viability, T/C","second compound 0.3 µM, first compound 0.3 µM",14.4%
